The values that follow come from patent US5475010A, “7'-amino-naphthazarin antibiotic derivatives” (Gruppo Lepetit S.p.A., priority 1991, dated 1995).

In test [1] the test system is Bacteroides fragiles ATCC 9689. Put plainly: MIC by broth microdilution, Bacteroides fragilis. The test is classed as cell-based. The conditions noted are these: ATCC9689, Table 2, internal code 1010, approx. 10^4 cfu/ml, Wilkins-Chalgren broth, 37° C., 48 h, N2-CO2-H2 (80:10:10).
In test [2] the test system is Streptococcus pneumonieae UC 41. Put plainly: MIC by broth microdilution, Streptococcus pneumoniae. The test is classed as cell-based. For orientation: Broth dilution looks for growth in wells or tubes with falling amounts of substance.
Test [3] relates to Staphilococcus aureus Tour. Put plainly: MIC by broth microdilution, Staphylococcus aureus Tour. The test is classed as cell-based. The conditions noted are these: Iso-Sensitest broth, 37° C., 20-24 h, air.
Test [4] deals with Staphilococcus epidermidis ATCC 12228. Put plainly: MIC by broth microdilution, Staphylococcus epidermidis. The test is classed as cell-based. The conditions noted are these: ATCC12228, Table 2, internal code 147, approx. 10^4 cfu/ml, Iso-Sensitest broth, 37° C., 20-24 h, air, read-out: MIC.
For test [5], the system named is Haemophilus influenzae type b ATCC 19418. Put plainly: MIC by broth microdilution, Haemophilus influenzae. Format: cell-based. The conditions noted are these: ATCC19418, Table 2, internal code 970, approx. 10^4 cfu/ml, Brain Heart infusion broth + 1% Supplement C, 37° C., 48 h, 5% CO2.
Test [6] concerns Tricophyton mentagrophytes. Description: MIC by broth microdilution, Trichophyton mentagrophytes. The conditions noted are these: 72 h. The test is classed as cell-based.
Test [7] has as its system Candida albicans SKF 2270. Put plainly: MIC by broth microdilution, Candida albicans. Format: cell-based. Conditions: Table 2; internal code 145; approx. 10^4 cfu/ml; buffered Yeast Nitrogen Base broth + glucose + L-asparagine; 37° C., 20-24 h, air.
Test [8] has as its system Neisseria gonorrhoeae ISM 68/126. Description: MIC by broth microdilution, Neisseria gonorrhoeae. Format: cell-based. The conditions noted are these: ISM68/126, Table 2, internal code 997, approx. 10^4 cfu/ml, GC Base broth + 1% IsoVitaleX, 37° C., 48 h, 5% CO2.
Test [9] concerns Proteus vulgaris X19H ATCC 881. Put plainly: MIC by broth microdilution, Proteus vulgaris. Conditions: ATCC881. The test is classed as cell-based.
Test [10] deals with Pseudomonas aeruginosa ATCC 10145. Put plainly: MIC by broth microdilution, Pseudomonas aeruginosa. The test is classed as cell-based. Conditions: ATCC10145, Table 2, internal code 4, approx. 10^4 cfu/ml, Iso-Sensitest broth, 37° C., 20-24 h, air.
The subject of test [11] is Staphilococcus haemolyticus (clin. isolate). Put plainly: MIC by broth microdilution, Staphylococcus haemolyticus. The conditions noted are these: Table 2, internal code 602, approx. 10^4 cfu/ml, Iso-Sensitest broth, 37° C., 20-24 h, air, read-out: MIC. Format: cell-based.
Test [12] deals with Escherichia coli SKF 12140. Put plainly: MIC by broth microdilution, Escherichia coli. Format: cell-based. Conditions: SKF12140.
Test [13] deals with Streptococcus pyogenes C 203. Description: MIC by broth microdilution, Streptococcus pyogenes. The test is classed as cell-based.
For test [14], the system named is Enterococcus faecalis ATCC 7080. Description: MIC by broth microdilution, Enterococcus faecalis. Format: cell-based.
For test [15], the system named is Gram-positive and Gram-negative bacteria. Conditions: in vitro, known / U.S. Pat. No. 3,914,257, cited from earlier work.
The subject of test [16] is Propionibacterium acnes ATCC 6919. Description: MIC by broth microdilution, Propionibacterium acnes. Format: cell-based. Conditions: Cutibacterium acnes, ATCC6919; Table 2; internal code 1014; approx. 10^4 cfu/ml; Wilkins-Chalgren broth; 37° C., 48 h, N2-CO2-H2 (80:10:10); read-out: MIC.
Test [17] deals with fungi, including filamentous fungi (e.g., Trichophyton mentarophytes) and yeasts (e.g., Candida albicans). The conditions noted are these: in vitro; U.S. Pat. No. 3,914,257; cited from earlier work.
Setting [18] is: Table 2, internal code 165, + 30% bovine serum.
Where [19] appears, read: Table 2, internal code 165, inoculum 10^6 cfu/ml.
[20] abbreviates: Table 2, internal code 165, inoculum approx. 10^4 cfu/ml.
[21] abbreviates: ATCC7080, Table 2, internal code 149, approx. 10^4 cfu/ml, Iso-Sensitest broth, 37° C., 20-24 h, air, read-out: MIC.
[22] abbreviates: UC41, Table 2, internal code 44, approx. 10^4 cfu/ml, Todd Hewitt broth, 37° C., 20-24 h, air, read-out: MIC.

Converted amounts (≈) assume the structure as drawn. Like-named read-outs stand apart in the source and are kept apart here.

With `CCCNC1=CC(=O)c2c(O)c3c(c(O)c2C1=O)OC1(C3)CC(O)c2cc3cc(C(=O)OC)oc(=O)c3c(O)c2O1` (centres unmarked) [Example 12, 7'-propylamino purpuromycin], the MIC was 0.03 µg/mL (≈ 0.0531 µM) in test [1]; 0.03 µg/mL (≈ 0.0531 µM) in test [2] (UC41); 2 µg/mL in [3] (setting [18]); 0.03 µg/mL (≈ 0.0531 µM) in [3] (setting [19]); 0.03 µg/mL (≈ 0.0531 µM) in [3] (setting [20]); 0.016 µg/mL (≈ 0.0283 µM) in test [4]. Besides, the MIC in [5] was determined as 0.13 µg/mL; in test [6] it was 128 µg/mL (≈ 226 µM); in [7] it was 64 µg/mL; in test [8], 0.06 µg/mL; in [9], 128 µg/mL (≈ 226 µM); in [10], 128 µg/mL (≈ 226 µM). The MIC in [11] was 0.06 µg/mL (≈ 0.106 µM); in [12] it was above 128 µg/mL; in [13] (C203, Table 2, internal code 49, approx. 10^4 cfu/ml, Todd Hewitt broth, 37° C., 20-24 h, air, read-out: MIC), 0.13 µg/mL (≈ 0.23 µM); in [14] (setting [21]), 0.06 µg/mL (≈ 0.106 µM).

Regarding `COC(=O)c1cc2cc3c(c(O)c2c(=O)o1)OC1(Cc2c(O)c4c(c(O)c2O1)C(=O)C(NCc1ccccc1)=CC4=O)CC3O` (centres unmarked) [Example 8], the MIC in [2] (setting [22]) is 0.06 µg/mL (≈ 0.0978 µM); in test [3] (Table 2, internal code 165, + 30% bovine serum, read-out: MIC), 32 µg/mL; in test [3] (setting [19]), 1 µg/mL (≈ 1.63 µM); in [3] (setting [20]) it was 0.5 µg/mL (≈ 0.815 µM); in test [4], 0.13 µg/mL (≈ 0.212 µM); in test [6], above 128 µg/mL. In addition, the MIC is 0.25 µg/mL in [8]; above 128 µg/mL in [9]; above 128 µg/mL in test [10]; 0.13 µg/mL (≈ 0.212 µM) in [11]; above 128 µg/mL in [12]; 1 µg/mL (≈ 1.63 µM) in [13] (C203). Also, the MIC in test [14] (setting [21]) turned out to be 4 µg/mL (≈ 6.52 µM).

With `COC(=O)c1cc2cc3c(c(O)c2c(=O)o1)OC1(CC3)Cc2c(O)c3c(c(O)c2O1)C(=O)C(OC)=CC3=O` (centres unmarked) [γ-Rubromycin], in [15], the “antimicrobial activity against Gram-positive and Gram-negative bacteria” value is “known antimicrobial agents against Gram-positive and Gram-negative bacteria”.

As to `CNC1=CC(=O)c2c(O)c3c(c(O)c2C1=O)OC1(C3)CC(O)c2cc3cc(C(=O)OC)oc(=O)c3c(O)c2O1` (centres unmarked) [Example 14, 7'-methylamino purpuromycin], the MIC in test [1] is 0.03 µg/mL (≈ 0.0558 µM); in [2] (setting [22]), 0.016 µg/mL (≈ 0.0298 µM); in test [3] (setting [18]) it was 0.25 µg/mL; in test [3] (Table 2, internal code 165, inoculum 10^6 cfu/ml, read-out: MIC) it was 0.06 µg/mL (≈ 0.112 µM); in test [3] (Table 2, internal code 165, inoculum approx. 10^4 cfu/ml, read-out: MIC), 0.016 µg/mL (≈ 0.0298 µM); in [4] it was 0.008 µg/mL (≈ 0.0149 µM). Moreover, the MIC in test [5] was 0.13 µg/mL; in test [6] (Table 2, internal code 634, 1% (v/v) suspension of mycelia and conidia, YM broth, 30° C., air, read-out: MIC), at most 0.13 µg/mL; in test [7], 2 µg/mL; in test [8], 0.06 µg/mL; in [9], above 128 µg/mL; in test [10] it was above 128 µg/mL. The MIC was 0.016 µg/mL (≈ 0.0298 µM) in test [11]; above 128 µg/mL in test [12]; 0.03 µg/mL (≈ 0.0558 µM) in test [13] (C203); 0.03 µg/mL (≈ 0.0558 µM) in test [14] (ATCC7080); 0.008 µg/mL (≈ 0.0149 µM) in test [16].

For `COC(=O)c1cc2cc3c(c(O)c2c(=O)o1)OC1(Cc2c(O)c4c(c(O)c2O1)C(=O)C(OC)=CC4=O)CC3O` (centres unmarked) [Purpuromycin, purpuromycin], the “antimicrobial activity against Gram-positive and Gram-negative bacteria” value is “known antimicrobial agents against Gram-positive and Gram-negative bacteria” in test [15]; “active in vitro” in [15] (listed as purpuromycin). In test [17], the activity against fungi result is “active in vitro”.
